What was measured:
B16F10 melanoma cells = experiment: Cytotoxicity, MTT assay; assay type: cell-based; conditions: 48 hours; for cytotoxicity: at the concentration of 10 μM or more
Description: B16F10 melanoma cells were distributed in a 96-well plate at the density of 2×10^3 cells/well. The cells were cultured in DMEM supplemented with 10% fetal bovine serum (FBS) at 37° C. in 5% CO2 for 24 hours. The cells were exposed on the compounds of example and comparative examples 1˜4 at the set concentration each for 48 hours. MTT assay was performed to evaluate cytotoxicity. To perform MTT assay, MTT solution was added to the cells, followed by reaction for 2 hours. Then, DMSO was added thereto to dissolve formazan crystals, followed by measurement of OD570.

[1] = tested on: TRP 2 (tyrosinase-related protein 2) gene expression in B16F10 melanoma cells; experiment: Inhibition of TRP 2 gene expression (real-time PCR); assay type: cell-based; conditions: α-MSH 10 nM, compound 2 μM, 72 hours, FIG. 4b
Description: (§1) B16F10 melanoma cells were distributed in a 6-well plate, to which α-MSH (10 nM) (melanin synthesis inducing substance, alpha-melanocyte-stimulating hormone) and the compounds of example and comparative examples 1˜4 were treated at the concentration of 2 μM each, followed by exposure-culture for 72 hours. Then, the cells were harvested and total RNA of the cells was extracted using RNeasy mini kit (Qiagen). CDNA was synthesized by using M-MLV reverse transcriptase, 5X first-strand butter, dNTP mix and oligo(dT) primer (Thermo Fisher Scientific). The cDNA product, the primers of each gene and LightCycler® MultiplexMasters (Roche) were mixed, followed by SYBR Green-based real-time PCR using LightCycler® NanoInstrument (Roche). To relatively evaluate the level of tyrosinase mRNA expression, the expression was corrected based on the level of β-actin mRNA expression. The PCR conditions for gene amplification are as follows.
(§2) Evaluation of TRP 1 and TRP 2 gene expression was performed by the same manner as described in the evaluation of tyrosinase gene expression. Information on the primers used for the amplification of TRP 1 and TRP 2 gene expression is as follows.

[2] = tested on: MITF (microphthalmia-associated transcription factor) gene expression in B16F10 melanoma cells; experiment: Inhibition of MITF gene expression (real-time PCR); assay type: cell-based; conditions: α-MSH 10 nM, compound 2 μM, 72 hours, FIG. 3
Description: as §1
Evaluation of MITF gene expression was performed by the same manner as described in the evaluation of tyrosinase gene expression in experimental example 1. Information on the primers used for the amplification of MITF gene expression is as follows.

[3] = tested on: TRP 1 (tyrosinase-related protein 1) gene expression in B16F10 melanoma cells; experiment: Inhibition of TRP 1 gene expression (real-time PCR); assay type: cell-based; conditions: α-MSH 10 nM, compound 2 μM, 72 hours, FIG. 4a
Description: as §1, §2

[4] = Antioxidative effect, DPPH radical scavenging activity test; conditions: 37° C., 30 minutes, FIG. 5
Description: The antioxidative effect was evaluated by 2,2-diphenyl-1-picrylhydrazyl (DPPH) radical scavenging activity test.
Dimethyl sulfoxide (DMSO), vitamin C and the compounds of example and comparative examples 1˜4 were added to a 96-well plate at each designated concentration, and 200 μL of 200 μM DPPH methanolic solution was added to each well. The plate was shaken gently to mix them all, followed by reaction at 37° C. for 30 minutes. Then, OD515 was measured. DMSO was used as the control for the measurement of antioxidative effect and vitamin C was used as the positive control for the measurement of antioxidative effect.

[5] = tested on: melanin synthesis in B16F10 melanoma cells; experiment: Melanin synthesis inhibition; assay type: cell-based; conditions: α-MSH 10 nM, 72 hours
Description: B16F10 melanoma cells were distributed in a 96-well plate at the density of 3×10^5 cells/well. The cells were cultured in DMEM supplemented with 10% FBS at 37° C. in 5% CO2 for 24 hours. […] The cells were harvested, followed by dissolving in 1 N NaOH by heating at 80° C. for 20 minutes. Then, OD490 was measured. The melanin synthesis inhibition rate was calculated as follows.
Melanin inhibition rate (%)=[(C−S)/C]×100
C: OD when α-MSH alone was treated.
S: OD when each sample was treated.

[6] = tested on: tyrosinase gene expression in B16F10 melanoma cells; experiment: Inhibition of tyrosinase gene expression (real-time PCR); assay type: cell-based; conditions: α-MSH 10 nM, compound 2 μM, 72 hours, mRNA corrected to β-actin, FIG. 2
Description: as §1
Denaturation: 95° C., 10 seconds
Annealing: melting point of each primer, 10 seconds
Extension/Detection: 72° C., 20 seconds
Total cycle number: 45 cycles
Information on the primers used for the amplification of tyrosinase gene expression and information on the primers for β-actin used as a correction gene are as follows.

mushroom tyrosinase = experiment: Tyrosinase activity inhibition (L-DOPA oxidation); assay type: biochemical; conditions: pH 7.0, FIG. 8; for inhibitory effect on tyrosinase activity: 6.25 μM (equal concentration)
Description: Samples were dissolved in an organic solvent such as ethanol, which were diluted in a proper buffer such as 100 mM phosphate buffer (pH 7.0). Those samples diluted at a proper concentration in order to inhibit the activity to DOPA oxidation reaction were used as the sample solutions for the experiment. 850 μL of 100 mM phosphate buffer (pH 7.0), 50 μL of the sample solution and 50 μL of mushroom tyrosinase (2000 U/ml) were loaded in a test tube in that order, followed by reaction at 37° C. for 5 minutes. 50 μL of 0.06 mM L-DOPA (L-3,4-dihydroxyphenylalanine) solution was added thereto, and then OD475 was measured using a microplate reader. After reacting the solution at 37° C. for 15 minutes, OD475 was measured again. DMSO was used as the control and Kojic acid was used for the positive control.
Tyrosinase activity inhibition rate (%)=[(A-B)/A]×100
A: difference of OD in the control group (OD after the reaction—OD before the reaction)
B: difference of OD in the experimental group (OD after the reaction—OD before the reaction)

COc1ccc(/C=C/C=C/C=C/c2ccc(OC)c(O)c2)cc1O [compound 4, 5,5′-((1E,3E,5E)-hexa-1,3,5-triene-1,6-diyl)bis(2-methoxyphenol)]
cytotoxicity (B16F10 melanoma cells): strong cytotoxicity

COc1cccc(/C=C/C=C/C=C/c2cccc(OC)c2OC)c1OC [compound of example, (1E,3E,5E)-1,6-bis(2,3-dimethoxyphenyl)hexa-1,3,5-triene]
inhibitory effect on TRP 2 gene expression (relative expression level) [1]: excellent in inhibiting TRP1 and TRP2 gene expression
inhibitory effect on MITF gene expression (relative expression level) [2]: excellent in inhibiting MITF gene expression
inhibitory effect on TRP 1 gene expression (relative expression level) [3]: excellent in inhibiting TRP1 and TRP2 gene expression
antioxidative effect (DPPH radical scavenging activity) ([4]; 40 μM, compared with comparative examples 1˜4): excellent antioxidative effect
antioxidative effect (DPPH radical scavenging activity) ([4]; about 25 μM, compared with comparative examples 1˜3): excellent antioxidative effect
melanin content in the cells ([5]; versus comparative examples, FIG. 7): significantly lower
melanin content in media and cells ([5]; compound 1 μM, versus comparative examples 1˜4, FIG. 7): lower in both media and cells
cell survival rate (B16F10 melanoma cells; concentration increased from 5 μM to 15 μM, FIG. 6): ≥ 80%
inhibitory effect on tyrosinase gene expression (relative expression level) [6]: excellent in inhibiting tyrosinase gene expression
reduction of tyrosinase activity (mushroom tyrosinase; 6.25 μM): approximately 20%

Oc1ccc(/C=C/C=C/C=C/c2ccc(O)cc2)cc1 [compound 3, 4,4′-((1E,3E,5E)-hexa-1,3,5-triene-1,6-diyl)diphenol]
cytotoxicity (B16F10 melanoma cells): strong cytotoxicity
inhibitory effect on tyrosinase activity (mushroom tyrosinase): did not show inhibitory effect on tyrosinase activity

COc1cc(/C=C/C=C/C=C/c2ccc(O)c(OC)c2)ccc1O [comparative example 1, 4,4′-((1E,3E,5E)-hexa-1,3,5-triene-1,6-diyl)bis(2-methoxyphenol), reference compound]
cytotoxicity (B16F10 melanoma cells): strong cytotoxicity
inhibitory effect on tyrosinase gene expression (relative expression level) [6]: hardly had inhibitory effect on the expression of tyrosinase gene

COc1ccc(/N=C/c2ccc(O)cc2O)cc1 [compound 2, (E)-4-((4-methoxyphenylimino)methyl)benzene-1,3-diol]
inhibitory effect on tyrosinase activity (mushroom tyrosinase): did not show inhibitory effect on tyrosinase activity
